From PubChem BioAssay (NCI)
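How tested: cells in 96-well plates exposed to compound for 48 hours at five concentrations. GI50 marks 50% less growth. Definition used: TGI = concentration required for complete inhibition of growth.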

Legend:
Experiment in all cases: NCI-60 cell line screen, 48 h
SW-620 colon = test system: SW-620 colon
T-47D breast = test system: T-47D breast
DU-145 prostate = test system: DU-145 prostate
MOLT-4 leukemia = test system: MOLT-4 leukemia
SF-539 CNS = test system: SF-539 CNS
SK-MEL-5 melanoma = test system: SK-MEL-5 melanoma

Compound	GI50 (SW-620 colon)	TGI (SW-620 colon)	GI50 (T-47D breast)	TGI (T-47D breast)	GI50 (DU-145 prostate)	TGI (DU-145 prostate)	GI50 (MOLT-4 leukemia)	TGI (MOLT-4 leukemia)	GI50 (SF-539 CNS)	TGI (SF-539 CNS)	GI50 (SK-MEL-5 melanoma)	TGI (SK-MEL-5 melanoma)
S=c1[nH]c(=S)c2cc3ccccc3nc2[nH]1	26.8 µM	> 100 µM	11.1 µM	> 100 µM	> 100 µM	> 100 µM	4.68 µM	> 100 µM	> 100 µM	> 100 µM	30 µM	> 100 µM
COc1ccc2nc3ccccc3c(NCc3ccc(F)cc3)c2c1	1.63 µM	7.03 µM	3.11 µM	13.6 µM	2.09 µM	7.04 µM	1.66 µM	10.4 µM	1.76 µM	6.54 µM	2 µM	7.2 µM
COc1cc(C(=O)N2CCN(C(=O)c3cc(OC)c(OC)c(OC)c3)C2=S)cc(OC)c1OC	20.3 µM	46.5 µM	13.1 µM	40.3 µM	13.6 µM	27.7 µM	23.5 µM	58.4 µM	14.5 µM	30.2 µM	–	–
C=CCC1(c2ccc(OC)cc2)C=CC(=O)CC1 (configuration not stated)	–	> 100 µM	–	> 100 µM	–	> 100 µM	–	> 100 µM	–	> 100 µM	–	> 100 µM
CC(NCCC(c1ccccc1)c1ccccc1)c1ccccc1 (configuration not stated)	1.71 µM	3.42 µM	1.59 µM	3.29 µM	3.09 µM	9.76 µM	2.59 µM	7.15 µM	2.92 µM	9.01 µM	1.6 µM	2.95 µM
COc1ccc(-c2ccc(=O)oc2C#Cc2cc(OC)c(OC)c(OC)c2)cc1O	0.15 µM	> 100 µM	6.4 µM	> 100 µM	0.248 µM	1.54 µM	0.952 µM	> 100 µM	0.254 µM	1.16 µM	0.183 µM	1.16 µM
C[C@@H]1C[C@@H]([C@@H](CC2CC(=O)NC(=O)C2)OC(=O)CC(=O)c2ccccc2)C(=O)[C@@H](C)C1	0.512 µM	> 43.1 µM	0.554 µM	> 29.4 µM	0.769 µM	> 33.3 µM	0.494 µM	> 100 µM	0.521 µM	16.6 µM	0.661 µM	> 100 µM
COc1ccc(-c2nnc3n(C)c(=O)c4ccccc4n23)cc1N	0.0523 µM	> 100 µM	–	–	3.09 µM	> 100 µM	3.92 µM	> 100 µM	1.63 µM	8.82 µM	0.0598 µM	> 100 µM
COc1ccc(C(=O)Nc2ccc(O)c(=O)cc2)cc1	–	> 100 µM	–	–	–	59 µM	–	–	–	81.1 µM	–	> 100 µM
CCN1CCN(c2cc(C)c3cc(NC(=O)c4ccc(OC)c(OC)c4)ccc3n2)CC1	4.21 µM	> 42.3 µM	> 39 µM	> 100 µM	> 60.6 µM	> 100 µM	6.21 µM	88.9 µM	5.44 µM	> 44.8 µM	1.17 µM	> 42.3 µM
N=c1c2c(-c3ccccc3)c(-c3ccccc3)n(Cc3ccccc3)c2ncn1C1CCC(O)CC1 (configuration not stated)	0.0497 µM	12.9 µM	0.911 µM	18.3 µM	0.351 µM	15.3 µM	0.075 µM	4.83 µM	0.639 µM	2.24 µM	0.511 µM	1.85 µM
CC1(C)OC2C(CO[Si](C)(C)C(C)(C)C)OC(n3c(I)c(C#C[Si](C)(C)C)c(=O)[nH]c3=O)C2O1 (configuration not stated)	1.69 µM	3.21 µM	10.5 µM	26.4 µM	13 µM	25.6 µM	1.47 µM	3.54 µM	15.4 µM	28.9 µM	13.4 µM	26.2 µM
O=C(Nc1cccc(C(F)(F)F)c1)c1ccc(NC2=C(Cl)C(=O)N(Cc3ccc(Cl)cc3Cl)C2=O)cc1	2.12 µM	6.05 µM	2.8 µM	> 100 µM	11.8 µM	30.2 µM	1.31 µM	6.8 µM	8.06 µM	21.5 µM	1.78 µM	3.5 µM
CNCCOC(=O)/C=C1\CC[C@H]2[C@@H]([C@@H](O)C(=O)[C@@H]3[C@]2(C)CC[C@H](O)[C@]3(C)C(=O)OC)[C@H]1C	0.318 µM	1.14 µM	0.33 µM	1.67 µM	0.188 µM	0.371 µM	0.212 µM	0.543 µM	0.267 µM	0.701 µM	0.252 µM	0.734 µM
NNC(=O)CNc1cccc(Br)c1	–	> 100 µM	–	> 100 µM	–	> 100 µM	–	–	–	> 100 µM	–	> 100 µM
CCN(CC)CCNc1nc(N)c(C#N)c(C#N)c1C#N	–	> 10 µM	–	> 10 µM	–	> 10 µM	–	> 10 µM	–	> 10 µM	–	> 10 µM
CCOC(=O)Nc1cc2c(c(N)n1)N=C(c1ccccc1)CO2	0.0496 µM	98.2 µM	20.4 µM	73.3 µM	0.194 µM	1.44 µM	0.105 µM	> 40.7 µM	0.195 µM	0.789 µM	0.174 µM	5.9 µM
Cc1nc(N)sc1N=Nc1ccccc1Br	–	> 100 µM	–	57.2 µM	–	58.5 µM	–	> 100 µM	–	> 59.5 µM	–	48.6 µM
NC(N)=NCCCC(=O)O	–	> 100 µM	–	> 100 µM	–	> 100 µM	–	> 100 µM	–	> 100 µM	–	> 100 µM
CC(=O)ON1CCCC(P(=O)(OCCSC(=O)C(C)(C)C)OCCSC(=O)C(C)(C)C)C1=O (configuration not stated)	1.59 µM	> 100 µM	2.08 µM	> 100 µM	3.08 µM	> 100 µM	0.854 µM	11.5 µM	3.96 µM	27.4 µM	1.21 µM	4.15 µM
NC1CCN(Cc2ccccc2)CC1	> 100 µM	> 100 µM	> 100 µM	> 100 µM	–	–	> 100 µM	> 100 µM	2.27 µM	6.21 µM	24.2 µM	> 100 µM
